According to patent publication US20110166191A1, “3-(2-amino-ethyl)-5-(3-cyclohexyl-propylidene)-thiazolidine-2,4-dione and its derivatives as multiple signaling pathway inhibitors and for the treatment of cancer” (priority 2010, published 2011):

What was measured:
Type in all cases: cell-based
RPMI-8226 = assay: NCI 60 cell line panel screening; conditions: Homo sapiens, Leukemia, read-out: Growth Inhibition (GI50)
Description: (§1) Compound 3-(2-aminoethyl)-5-(3-cyclohexylpropylidene)thiazolidine-2,4-dione was screened at five concentrations in National Cancer Institute (NCI) 60-cell line panel according to NCI's protocol for growth inhibition.

MALME-3M = assay: NCI 60 cell line panel screening; conditions: Homo sapiens, Melanoma, read-out: Growth Inhibition (GI50)
Description: as §1

SF-539 = assay: NCI 60 cell line panel screening; conditions: Homo sapiens, CNS Cancer, read-out: Growth Inhibition (GI50)
Description: as §1

SK-MEL-5 = assay: NCI 60 cell line panel screening; conditions: Homo sapiens, Melanoma, read-out: Growth Inhibition (GI50)
Description: as §1

KM12 = assay: NCI 60 cell line panel screening; conditions: Homo sapiens, Colon Cancer, read-out: Growth Inhibition (GI50)
Description: as §1

786-0 = assay: NCI 60 cell line panel screening; conditions: Homo sapiens, Renal Cancer, read-out: Growth Inhibition (GI50)
Description: as §1

MDA-MB-435 = assay: NCI 60 cell line panel screening; conditions: Homo sapiens, Melanoma, read-out: Growth Inhibition (GI50)
Description: as §1

SF-268 = assay: NCI 60 cell line panel screening; conditions: Homo sapiens, CNS Cancer, read-out: Growth Inhibition (GI50)
Description: as §1

HCT-116 = assay: NCI 60 cell line panel screening; conditions: Homo sapiens, Colon Cancer, read-out: Growth Inhibition (GI50)
Description: as §1

PC-3 = assay: NCI 60 cell line panel screening; conditions: Homo sapiens, Prostate Cancer, read-out: Growth Inhibition (GI50)
Description: as §1

UO-31 = assay: NCI 60 cell line panel screening; conditions: Homo sapiens, Renal Cancer, read-out: Growth Inhibition (GI50)
Description: as §1

HCC-2998 = assay: NCI 60 cell line panel screening; conditions: Homo sapiens, Colon Cancer, read-out: Growth Inhibition (GI50)
Description: as §1

A498 = assay: NCI 60 cell line panel screening; conditions: Homo sapiens, Renal Cancer, read-out: Growth Inhibition (GI50)
Description: as §1

HOP-62 = assay: NCI 60 cell line panel screening; conditions: Homo sapiens, Non-Small Cell Lung Cancer, read-out: Growth Inhibition (GI50)
Description: as §1

RXF-393 = assay: NCI 60 cell line panel screening; conditions: Homo sapiens, Renal Cancer, read-out: Growth Inhibition (GI50)
Description: as §1

HOP-92 = assay: NCI 60 cell line panel screening; conditions: Homo sapiens, Non-Small Cell Lung Cancer, read-out: Growth Inhibition (GI50)
Description: as §1

T-47D = assay: NCI 60 cell line panel screening; conditions: Homo sapiens, T47D, Breast Cancer, read-out: Growth Inhibition (GI50)
Description: as §1

OVCAR-4 = assay: NCI 60 cell line panel screening; conditions: Homo sapiens, Ovarian Cancer, read-out: Growth Inhibition (GI50)
Description: as §1

NCI-522 = assay: NCI 60 cell line panel screening; conditions: Non-Small Cell Lung Cancer, read-out: Growth Inhibition (GI50)
Description: as §1

OVCAR-8 = assay: NCI 60 cell line panel screening; conditions: Homo sapiens, Ovarian Cancer, read-out: Growth Inhibition (GI50)
Description: as §1

NCI-H23 = assay: NCI 60 cell line panel screening; conditions: Homo sapiens, Non-Small Cell Lung Cancer, read-out: Growth Inhibition (GI50)
Description: as §1

EKVX = assay: NCI 60 cell line panel screening; conditions: Homo sapiens, Non-Small Cell Lung Cancer, read-out: Growth Inhibition (GI50)
Description: as §1

IGROV1 = assay: NCI 60 cell line panel screening; conditions: Homo sapiens, IGROV-1, Ovarian Cancer, read-out: Growth Inhibition (GI50)
Description: as §1

A549/ATCC = assay: NCI 60 cell line panel screening; conditions: Homo sapiens, Non-Small Cell Lung Cancer, read-out: Growth Inhibition (GI50)
Description: as §1

HL-60(TB) = assay: NCI 60 cell line panel screening; conditions: Homo sapiens, Leukemia, read-out: Growth Inhibition (GI50)
Description: as §1

HS 578T = assay: NCI 60 cell line panel screening; conditions: Homo sapiens, Breast Cancer, read-out: Growth Inhibition (GI50)
Description: as §1

COLO 205 = assay: NCI 60 cell line panel screening; conditions: Homo sapiens, Colon Cancer, read-out: Growth Inhibition (GI50)
Description: as §1

SK-OV-3 = assay: NCI 60 cell line panel screening; conditions: Homo sapiens, Ovarian Cancer, read-out: Growth Inhibition (GI50)
Description: as §1

BT-549 = assay: NCI 60 cell line panel screening; conditions: Homo sapiens, Breast Cancer, read-out: Growth Inhibition (GI50)
Description: as §1

CAKI-1 = assay: NCI 60 cell line panel screening; conditions: Homo sapiens, Renal Cancer, read-out: Growth Inhibition (GI50)
Description: as §1

SN12C = assay: NCI 60 cell line panel screening; conditions: Homo sapiens, Renal Cancer, read-out: Growth Inhibition (GI50)
Description: as §1

ACHN = assay: NCI 60 cell line panel screening; conditions: Homo sapiens, Renal Cancer, read-out: Growth Inhibition (GI50)
Description: as §1

K-562 = assay: NCI 60 cell line panel screening; conditions: Homo sapiens, K562, Leukemia, read-out: Growth Inhibition (GI50)
Description: as §1

MDA-MB-231/ATCC = assay: NCI 60 cell line panel screening; conditions: Homo sapiens, Breast Cancer, read-out: Growth Inhibition (GI50)
Description: as §1

p-MEK = assay: Western blot analysis of p-MEK in U937 cells; conditions: PMA/TPA 200 nM stimulation
Method: FIG. 1. U937 cells were treated with Formula II prepared as described in Example 4 [i.e. 3-(2-aminoethyl)-5-(3-cyclohexylpropylidene)thiazolidine-2,4-dione] for 1 h, then stimulated with PMA (200 nM) for 30 min. Lysates were analyzed for p-Akt, p-MEK, p-ERK and α-tubulin by western blot analysis.
Cells (5×10^5 per ml) were treated with various concentrations of test compound at 37° C. (5% CO2) for 3 hrs, then stimulated with TPA at a final concentration of 200 nM for 20 min. Samples from whole-cell pellets were prepared and 30 μg protein for each condition was subjected to SDS-PAGE, transferred onto a PVDF membrane, and blocked with 5% fat-free milk for 30 min. The membrane is probed with primary antibodies overnight at 4° C. followed by incubation with horseradish peroxidase-labeled anti-mouse IgG (1:5000, BD Biosciecne). The immunoreactive bands are detected by chemiluminescence methods (Pierce) and visualized on Kodak Omat film. The following primary antibodies were used: phospho-p44/42 MAPK (ERK1/2, Thr202/Tyr204), p44/42 MAPK, phospho-p90RSK (Thr359/Ser363), RSK1/RSK2/RSK3 (Cell Signaling). Blots were reprobed with antibodies against α-tubulin to ensure equal loading and transfer of proteins.

`NCCN1C(=O)S/C(=C\CCC2CCCCC2)C1=O` [Example 4, 3-(2-aminoethyl)-5-(3-cyclohexylpropylidene)thiazolidine-2,4-dione] gave a GI50 (RPMI-8226) of 2.51 µM, a GI50 (MALME-3M) of 1.8 µM and a GI50 (SF-539) of 1.83 µM. It also gave a GI50 (SK-MEL-5) of 1.7 µM, a GI50 (KM12) of 1.77 µM and a GI50 (786-0) of 1.72 µM. The GI50 (MDA-MB-435) was 1.85 µM, the GI50 (SF-268) was 2.23 µM and the GI50 (HCT-116) was 1.67 µM. The GI50 (PC-3) was 1.91 µM, the GI50 (UO-31) was 1.56 µM and the GI50 (HCC-2998) was 1.78 µM. For the same compound, the GI50 (A498) was 1.57 µM, the GI50 (HOP-62) was 3.25 µM and the GI50 (RXF-393) was 2.56 µM. It also gave a GI50 (HOP-92) of 5.41 µM, a GI50 (T-47D) of 2.04 µM and a GI50 (OVCAR-4) of 1.6 µM. The GI50 (NCI-522) was 1.4 µM, the GI50 (OVCAR-8) was 1.89 µM and the GI50 (NCI-H23) was 3.08 µM. The GI50 (EKVX) was 2.53 µM, the GI50 (IGROV1) was 1.96 µM and the GI50 (A549/ATCC) was 2.5 µM. It also gave a GI50 (HL-60(TB)) of 2.04 µM, a GI50 (HS 578T) of 2.49 µM and a GI50 (COLO 205) of 2.19 µM. The GI50 (SK-OV-3) was 4.04 µM, the GI50 (BT-549) was 2.05 µM and the GI50 (CAKI-1) was 1.64 µM. For the same compound, the GI50 (SN12C) was 2.15 µM, the GI50 (ACHN) was 1.84 µM and the GI50 (K-562) was 2.59 µM. For the same compound, the GI50 (MDA-MB-231/ATCC) was 2.08 µM and the “p-MEK level (western blot)” value (p-MEK) was “dose-dependently decreased the p-MEK level”.
